Structures can show the parent of a compound that is named as a salt.

The target of one experiment is T1, human COX-1 (Homo sapiens, UniProt P23219).
T1 construct: cell lines expressing human COX-1 (U-937 from human histiocitic lymphoma); endogenous in cells; host or cells: U-937 (human histiocytic lymphoma)
The experiment is described as follows: Inhibition of COX-1 activity (PGE2 production after arachidonic acid) in U-937 cells. Type of experiment: cell-based. The following applies: 0.1 μM test compound, PGE2 production after 10 μM arachidonic acid. On the procedure:
(§1) Inhibition of cyclooxygenase-1 (COX-1) and cyclooxygenase-2 (COX-2) Activity in Human Cell Lines
(§2) The inhibition of COX-1 and COX-2 is determined by assessing the PGE2 production after stimulation with arachidonic acid in cell lines expressing human COX-1 (U-937 from human histiocitic lymphoma) and human COX-2 (143.98.2 from human osteosarcoma), respectively.
(§3) The osteosarcoma-derived cells were cultured in 1 mL of DMEM culture medium supplemented with 10% fetal calf serum, in 24-well multidishes until confluence. U-937 cells were cultured in RPMI medium supplemented with 10% fetal calf serum in flasks.
(§4) To evaluate COX-2 activity, the medium was removed and replaced with Hepes-buffered saline solution (HBSS) without Ca^2+/Mg^2+ (2×10^5 cells/well). To evaluate COX-1 activity, the medium was removed and U-937 cells were resuspended to a final density of 3×10^6 cells/mL in HBSS without Ca^2+/Mg^2+ (1 mL/well, in 24-well multidishes). 1 μL of a solution of the test compound dissolved in DMSO or vehicle was added, and the samples were incubated for 15 min at 37° C. (5% CO2 and 95% humidity). Arachidonic acid was added (final concentration: 10 μM) and the samples were incubated for 10 min more. Next the reactions were quenched by adding indomethacin (8 mM, 30 μL). The amount of PGE2 in the supernatant was determined by specific enzymatic immunoassay (Kit Prostaglandin E2, Biotrak EIA system RPN222, Amersham Pharmacia Biotech). All the assays were performed in triplicate.
(§5) The results obtained with representative compounds of the present invention are shown in the following table, where the % of inhibition of COX-1 and COX-2 activity at a concentration of 0.1 μM of test compound are reported.

A further experiment deals with T2, human COX-2 (Homo sapiens, UniProt P35354).
T2 construct: human COX-2 (143.98.2 from human osteosarcoma), respectively; endogenous in cells; host or cells: 143.98.2 (human osteosarcoma)
T2 sequence (P35354 18-604): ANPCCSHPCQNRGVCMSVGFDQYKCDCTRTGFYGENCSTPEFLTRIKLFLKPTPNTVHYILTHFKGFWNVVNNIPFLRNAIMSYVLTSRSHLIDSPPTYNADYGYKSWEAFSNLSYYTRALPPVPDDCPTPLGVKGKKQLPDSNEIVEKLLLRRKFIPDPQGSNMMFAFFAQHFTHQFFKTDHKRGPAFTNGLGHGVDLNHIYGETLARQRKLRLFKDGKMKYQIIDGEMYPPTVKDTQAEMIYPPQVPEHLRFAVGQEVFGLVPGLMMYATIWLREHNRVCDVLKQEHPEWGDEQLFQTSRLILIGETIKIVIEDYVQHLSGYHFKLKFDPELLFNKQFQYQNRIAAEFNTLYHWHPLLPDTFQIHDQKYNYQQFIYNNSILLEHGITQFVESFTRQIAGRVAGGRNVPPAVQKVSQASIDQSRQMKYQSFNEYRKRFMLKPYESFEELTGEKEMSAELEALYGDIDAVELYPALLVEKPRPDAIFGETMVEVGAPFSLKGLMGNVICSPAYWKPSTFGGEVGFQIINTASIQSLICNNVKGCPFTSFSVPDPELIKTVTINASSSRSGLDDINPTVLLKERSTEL
The experiment is described as follows: Inhibition of COX-2 activity (PGE2 production after arachidonic acid) in 143.98.2 osteosarcoma cells. Type of experiment: cell-based. The following applies: 0.1 μM test compound, PGE2 production after 10 μM arachidonic acid. On the procedure:
as §1, §2, §3, §4, §5

T1 sequence (P23219 24-599): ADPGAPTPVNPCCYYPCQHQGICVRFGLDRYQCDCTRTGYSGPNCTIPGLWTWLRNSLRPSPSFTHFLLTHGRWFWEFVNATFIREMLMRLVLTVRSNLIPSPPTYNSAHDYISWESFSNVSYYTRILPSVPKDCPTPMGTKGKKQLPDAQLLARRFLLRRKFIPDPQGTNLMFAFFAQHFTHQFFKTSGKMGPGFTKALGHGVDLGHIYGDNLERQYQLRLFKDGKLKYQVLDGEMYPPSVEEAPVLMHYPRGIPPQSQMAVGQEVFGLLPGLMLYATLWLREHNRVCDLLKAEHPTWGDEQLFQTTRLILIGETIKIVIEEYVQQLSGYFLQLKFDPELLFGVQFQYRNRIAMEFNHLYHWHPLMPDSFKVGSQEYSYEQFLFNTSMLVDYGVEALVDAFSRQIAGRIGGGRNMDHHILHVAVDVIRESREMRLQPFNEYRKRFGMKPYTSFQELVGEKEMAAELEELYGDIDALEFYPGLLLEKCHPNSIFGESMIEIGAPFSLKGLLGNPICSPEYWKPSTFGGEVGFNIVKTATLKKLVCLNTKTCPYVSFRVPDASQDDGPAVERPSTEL

On to `CS(=O)(=O)c1ccc(-n2cnc(Cl)c2-c2ccc(N3CCCC3)cc2)cc1` [Example 1, 4-Chloro-1-(4-methylsulfonylphenyl)-5-[4-(1-pyrrolidinyl)phenyl]imidazole], for which the results for the inhibition at 0.1 µM against human COX-1 and at human COX-2 were 0% and 61%, respectively.
In the same order, the values of `CS(=O)(=O)c1ccc(-n2cnc(Cl)c2-c2ccc(N3CCC(O)C3)cc2)cc1` (stereo not shown) [Example 3, 4-Chloro-5-[4-(3-hydroxypyrrolidin-1-yl)phenyl]-1-(4-methylsulfonylphenyl)imidazole] are 11% and 75%.
In the case of `CC1CCCN1c1ccc(-c2c(Cl)ncn2-c2ccc(S(C)(=O)=O)cc2)cc1` (stereo not shown) [Example 4, 4-Chloro-5-[4-(2-methylpyrrolidin-1-yl)phenyl]-1-(4-methylsulfonylphenyl)imidazole], the inhibition at 0.1 µM against human COX-1 was determined as 0%; against human COX-2, 72%.
As for `NS(=O)(=O)c1ccc(-n2cnc(Cl)c2-c2ccc(N3CCCC3)cc2)cc1` [Example 5, 4-[4-Chloro-5-[4-(1-pyrrolidinyl)phenyl]imidazol-1-yl]benzenesulfonamide, hydrochloride], the values for the inhibition at 0.1 µM against human COX-1 and at human COX-2 were 0% and 70%, respectively.
With `CS(=O)(=O)c1ccc(-n2cnc(Cl)c2-c2ccc(N3CCCC3)c(Cl)c2)cc1` [Example 6, 4-Chloro-5-[3-chloro-4-(1-pyrrolidinyl)phenyl]-1-(4-methylsulfonylphenyl)imidazole], the results for the inhibition at 0.1 µM against human COX-1 and on human COX-2 were 0% and 89%, respectively.
On the same counts, the results for `CS(=O)(=O)c1ccc(-n2cnc(Cl)c2-c2ccc(N3C(=O)CCC3=O)cc2)cc1` [Example 7, 4-Chloro-1-(4-methylsulfonylphenyl)-5-[4-(2,5-dioxopyrrolidin-1-yl)phenyl]imidazole] are 0% and 72%.
On the same counts, the results for `CS(=O)(=O)c1ccc(-n2cnc(Cl)c2-c2ccc(N3CC=CC3=O)cc2)cc1` [Example 8, 4-Chloro-1-(4-methylsulfonylphenyl)-5-[4-(2-oxo-3-pyrrolin-1-yl)phenyl]imidazole] are 0% and 76%.
In the same order, the values of `CS(=O)(=O)c1ccc(-n2cnc(Cl)c2-c2ccc(N3CCOC3=O)cc2)cc1` [Example 9, 4-Chloro-1-(4-methylsulfonylphenyl)-5-[4-(2-oxooxazolidin-3-yl)phenyl]imidazole] are 0% and 72%.
`CS(=O)(=O)c1ccc(-n2cnc(Cl)c2-c2ccc(N3CCCC3=O)cc2)cc1` [Example 10, 4-Chloro-1-(4-methylsulfonylphenyl)-5-[4-(2-oxopyrrolidin-1-yl)phenyl]imidazole]: the inhibition at 0.1 µM against human COX-1 came to 0%; on human COX-2 it was 61%.
In the same order, the values of `CS(=O)(=O)c1ccc(-n2cnc(Cl)c2-c2ccc(N3CCCC3)nc2)cc1` [Example 12, 4-Chloro-1-(4-methylsulfonylphenyl)-5-[6-(1-pyrrolidinyl)-3-pyridyl]imidazole] are 0% and 79%.
In the same order, the values of `CS(=O)(=O)c1ccc(C2=C(c3ccc(N4CC=CC4=O)cc3)C(=O)OC2)cc1` [Example 14, 4-(4-Methylsulfonylphenyl)-3-[4-(2-oxo-3-pyrrolin-1-yl)phenyl]-5H-furan-2-one] are 0% and 49%.
Regarding `CS(=O)(=O)c1ccc(C2=C(c3ccc(N4CCCC4)cc3)C(=O)OC2)cc1` [Example 15, 4-(4-Methylsulfonylphenyl)-3-[4-(1-pyrrolidinyl)phenyl]-5H-furan-2-one], the results for the inhibition at 0.1 µM against human COX-1 and against human COX-2 were 17% and 81%, respectively.
In the same order, the values of `CS(=O)(=O)c1ccc(C2=C(c3ccc(N4CCCC4)c(Cl)c3)C(=O)OC2)cc1` [Example 16, 3-[3-Chloro-4-(1-pyrrolidinyl)phenyl]-4-(4-methylsulfonylphenyl)-5H-furan-2-one] are 0% and 93%.
On the same counts, the results for `CS(=O)(=O)c1ccc(C2=C(c3ccc(N4CCCC4)nc3)C(=O)OC2)cc1` [Example 17, 4-(4-Methylsulfonylphenyl)-3-[6-(1-pyrrolidinyl)-3-pyridyl]-5H-furan-2-one] are 0% and 81%.

The record behind these values is patent US20030114456A1, “Novel heterocylic compounds with anti-inflamatory activity” (priority 2000, published 2003).
